Tests used:
Type in all cases: in vivo
[1] = test system: giant foxtail (Setaria faberi); assay: Test A pre/postemergence
Summary of the method: (§1)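 Visual injury scores on a 0–100 scale, 100 being complete control, were assigned roughly ten days after treatment by comparison with untreated greenhouse controls. Test chemicals, formulated with surfactant in non-phytotoxic solvent, were sprayed onto soil preemergence and onto 1–2-leaf plants 2–10 cm tall postemergence.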

[2] = test system: velvetleaf (Abutilon theophrasti); assay: Test A pre/postemergence
Summary of the method: as §1

[3] = test system: morningglory (Ipomoea spp.); assay: Test A pre/postemergence
Summary of the method: as §1

[4] = test system: barnyardgrass (Echinochloa crus-galli); assay: Test A pre/postemergence
Summary of the method: as §1

[5] = test system: crabgrass (Digitaria sanguinalis); assay: Test A pre/postemergence
Summary of the method: as §1

[6] = test system: redroot pigweed (Amaranthus retroflexus); assay: Test A pre/postemergence
Summary of the method: as §1

[7] = test system: late watergrass (Echinochloa oryzicola); assay: Test E flooded paddy water application; conditions: Flood, 21 days, scale 0 to 100 (0 no effect, 100 complete control)
Summary of the method: (§2)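 Response scored visually on a 0–100 scale (100 = complete control) at 21 days against untreated pots. Treatment was into paddy water 3 cm deep over silt loam, with plants at the 2.0–2.5-leaf stage, grown under 16-h light at 29.5/26.7 °C day/night.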

[8] = test system: transplanted rice seedlings (Oryza sativa cv. ‘Japonica-M202’); assay: Test E flooded paddy water application; conditions: Flood, 21 days, scale 0 to 100 (0 no effect, 100 complete control)
Summary of the method: as §2

[9] = test system: junglerice (Echinochloa colona); assay: Test E flooded paddy water application; conditions: Flood, 21 days, scale 0 to 100 (0 no effect, 100 complete control)
Summary of the method: as §2

[10] = test system: rice flatsedge (Cyperus iria); assay: Test E flooded paddy water application; conditions: Flood, 21 days, scale 0 to 100 (0 no effect, 100 complete control)
Summary of the method: as §2

[11] = test system: water seeded rice seedlings (Oryza sativa cv. ‘Japonica-M202’); assay: Test E flooded paddy water application; conditions: Flood, 21 days, scale 0 to 100 (0 no effect, 100 complete control)
Summary of the method: as §2

[12] = test system: early watergrass (Echinochloa oryzoides); assay: Test E flooded paddy water application; conditions: Flood, 21 days, scale 0 to 100 (0 no effect, 100 complete control)
Summary of the method: as §2

[13] = test system: smallflower umbrella sedge (Cyperus difformis); assay: Test E flooded paddy water application; conditions: Flood, 21 days, scale 0 to 100 (0 no effect, 100 complete control)
Summary of the method: as §2

[14] = test system: ducksalad (Heteranthera limosa); assay: Test E flooded paddy water application; conditions: Flood, 21 days, scale 0 to 100 (0 no effect, 100 complete control)
Summary of the method: as §2

[15] = test system: purple redstem (Ammannia coccinea); assay: Test E flooded paddy water application; conditions: Flood, 21 days, scale 0 to 100 (0 no effect, 100 complete control)
Summary of the method: as §2

[16] = test system: bearded (brdd.) sprangletop (Leptochloa fusca ssp. fascicularis); assay: Test E flooded paddy water application; conditions: Flood, 21 days, scale 0 to 100 (0 no effect, 100 complete control)
Summary of the method: as §2

[17] = test system: barnyardgrass (Echinochloa crus-galli); assay: Test E flooded paddy water application; conditions: Flood, 21 days, scale 0 to 100 (0 no effect, 100 complete control)
Summary of the method: as §2

[18] = Postemergence, 125 g ai/ha, 0 to 100 scale (0 no effect, 100 complete control)
[19] = Postemergence, 500 g ai/ha, 0 to 100 scale (0 no effect, 100 complete control)
[20] = Preemergence, 125 g ai/ha, 0 to 100 scale where 0 is no effect and 100 is complete control, approximately ten days
[21] = Preemergence, 500 g ai/ha, 0 to 100 scale where 0 is no effect and 100 is complete control, approximately ten days

In the case of CCOC(=O)c1nc(-c2ccc(Cl)c(Cl)c2)nc(N)c1Cl [Compound 73], the “Plant response rating, Foxtail, Giant” value [1, 18] is reported as 15, the “Plant response rating, Foxtail, Giant” value [1, 19] is reported as 45 and the “Plant response rating, Foxtail, Giant” value [1, 20] is reported as 0. For the same molecule, the “Plant response rating, Foxtail, Giant” value [1, 21] was 15, the “Plant response rating, Velvetleaf” value [2, 18] was 70 and the “Plant response rating, Velvetleaf” value [2, 19] was 75. The “Plant response rating, Velvetleaf” value [2, 20] was 35, the “Plant response rating, Velvetleaf” value [2, 21] was 40 and the “Plant response rating, Morningglory” value [3, 18] was 50. The “Plant response rating, Morningglory” value [3, 19] was 65, the “Plant response rating, Morningglory” value [3, 20] was 0 and the “Plant response rating, Morningglory” value [3, 21] was 0. For the same molecule, the “Plant response rating, Barnyardgrass” value [4, 18] was 0, the “Plant response rating, Barnyardgrass” value [4, 19] was 5 and the “Plant response rating, Barnyardgrass” value [4, 20] was 5. The “Plant response rating, Barnyardgrass” value [4, 21] was 30, the “Plant response rating, Crabgrass” value [5, 18] was 15 and the “Plant response rating, Crabgrass” value [5, 19] was 35. The “Plant response rating, Crabgrass” value [5, 20] was 5, the “Plant response rating, Crabgrass” value [5, 21] was 35 and the “Plant response rating, Pigweed” value [6, 18] was 75. The “Plant response rating, Pigweed” value [6, 19] was 80, the “Plant response rating, Pigweed” value [6, 20] was 15 and the “Plant response rating, Pigweed” value [6, 21] was 60. The “Watergrass, Late plant response rating” value ([7]; 32 g ai/ha) was 0, the “Watergrass, Late plant response rating” value ([7]; 64 g ai/ha) was 0 and the “Watergrass, Late plant response rating” value ([7]; 125 g ai/ha) was 0. The “Watergrass, Late plant response rating” value ([7]; 250 g ai/ha) was 20, the “Plant response rating, Watergrass, Late” value ([7]; 16 g ai/ha) was 0 and the “Rice, Transplanted plant response rating” value ([8]; 32 g ai/ha) was 0. The “Rice, Transplanted plant response rating” value ([8]; 64 g ai/ha) was 0, the “Rice, Transplanted plant response rating” value ([8]; 125 g ai/ha) was 0 and the “Rice, Transplanted plant response rating” value ([8]; 250 g ai/ha) was 0. For the same molecule, the “Plant response rating, Rice, Transplanted” value ([8]; 16 g ai/ha) was 0, the “Junglerice plant response rating” value ([9]; 32 g ai/ha) was 0 and the “Junglerice plant response rating” value ([9]; 64 g ai/ha) was 0. The “Junglerice plant response rating” value ([9]; 125 g ai/ha) was 0, the “Junglerice plant response rating” value ([9]; 250 g ai/ha) was 0 and the “Plant response rating, Junglerice” value ([9]; 16 g ai/ha) was 0. The “Flatsedge, Rice plant response rating” value ([10]; 32 g ai/ha) was 0, the “Flatsedge, Rice plant response rating” value ([10]; 64 g ai/ha) was 0 and the “Flatsedge, Rice plant response rating” value ([10]; 250 g ai/ha) was 45. For the same molecule, the “Plant response rating, Flatsedge, Rice” value ([10]; 16 g ai/ha) was 0, the “Rice, Water Seeded plant response rating” value ([11]; 32 g ai/ha) was 0 and the “Rice, Water Seeded plant response rating” value ([11]; 64 g ai/ha) was 0. For the same molecule, the “Rice, Water Seeded plant response rating” value ([11]; 125 g ai/ha) was 0, the “Rice, Water Seeded plant response rating” value ([11]; 250 g ai/ha) was 0 and the “Plant response rating, Rice, Water Seeded” value ([11]; 16 g ai/ha) was 0. The “Watergrass, Early plant response rating” value ([12]; 32 g ai/ha) was 0, the “Watergrass, Early plant response rating” value ([12]; 64 g ai/ha) was 0 and the “Watergrass, Early plant response rating” value ([12]; 125 g ai/ha) was 0. The “Watergrass, Early plant response rating” value ([12]; 250 g ai/ha) was 0, the “Plant response rating, Watergrass, Early” value ([12]; 16 g ai/ha) was 0 and the “Sedge, Umbrella plant response rating” value ([13]; 32 g ai/ha) was 0. For the same molecule, the “Sedge, Umbrella plant response rating” value ([13]; 64 g ai/ha) was 0, the “Sedge, Umbrella plant response rating” value ([13]; 125 g ai/ha) was 35 and the “Sedge, Umbrella plant response rating” value ([13]; 250 g ai/ha) was 85. For the same molecule, the “Plant response rating, Sedge, Umbrella” value ([13]; 16 g ai/ha) was 0, the “Ducksalad plant response rating” value ([14]; 32 g ai/ha) was 100 and the “Ducksalad plant response rating” value ([14]; 64 g ai/ha) was 100. For the same molecule, the “Ducksalad plant response rating” value ([14]; 125 g ai/ha) was 100, the “Ducksalad plant response rating” value ([14]; 250 g ai/ha) was 100 and the “Plant response rating, Ducksalad” value ([14]; 16 g ai/ha) was 75. For the same molecule, the “Redstem plant response rating” value ([15]; 32 g ai/ha) was 0, the “Redstem plant response rating” value ([15]; 64 g ai/ha) was 90 and the “Redstem plant response rating” value ([15]; 125 g ai/ha) was 100. For the same molecule, the “Redstem plant response rating” value ([15]; 250 g ai/ha) was 100, the “Plant response rating, Redstem” value ([15]; 16 g ai/ha) was 0 and the “Sprangletop, Brdd. plant response rating” value ([16]; 32 g ai/ha) was 0. The “Sprangletop, Brdd. plant response rating” value ([16]; 64 g ai/ha) was 0, the “Sprangletop, Brdd. plant response rating” value ([16]; 125 g ai/ha) was 50 and the “Sprangletop, Brdd. plant response rating” value ([16]; 250 g ai/ha) was 70. For the same molecule, the “Plant response rating, Sprangletop, Brdd.” value ([16]; 16 g ai/ha) was 0, the “Barnyardgrass plant response rating” value ([17]; 64 g ai/ha) was 0 and the “Barnyardgrass plant response rating” value ([17]; 125 g ai/ha) was 90. The “Barnyardgrass plant response rating” value ([17]; 250 g ai/ha) was 100 and the “Plant response rating, Barnyardgrass” value ([17]; 16 g ai/ha) was 0.

Source: US8802597B2, “Herbicidal pyrimidines” (E I du Pont de Nemours and Company, priority 2003, dated 2014)
